According to patent US20060035879A1, “Organic Compounds” (priority 2002, published 2006):

What was measured:
[1] = tested on: New Zealand White rabbit iliac arteries; test: Rabbit iliac stent model (in-stent restenosis); assay type: in vivo; conditions: oral gavage, vs placebo
Description: Inhibition of In-Stent Restenosis and Proximal and Distal Lesion Development at 28 Days in the Rabbit Iliac Stent Model A combined angioplasty and stenting procedure is performed in New Zealand White rabbit iliac arteries. Iliac artery balloon injury is performed by inflating a 3.0×9.0 mm angioplasty balloon in the mid-portion of the artery followed by “pull-back” of the catheter for 1 balloon length. Balloon injury is repeated 2 times, and a 3.0×12 mm stent is deployed at 6 atm for 30 seconds in the iliac artery. Balloon injury and stent placement is then performed on the contralateral iliac artery in the same manner. A post-stent deployment angiogram is performed. All animals receive oral aspirin 40 mg/day daily as anti-platelet therapy and are fed standard low-cholesterol rabbit chow. Twenty-eight days after stenting, animals are anesthetized and euthanized and the arterial tree is perfused at 100 mmHg with lactated Ringer's solution for several minutes, then perfused with 10% formalin at 100 mmHg for 15 minutes. The vascular section between the distal aorta and the proximal femoral arteries is excised and cleaned of periadventitial tissue. Three sections of artery are sampled: the stented section, the artery 5 mm immediately proximal to the stent and the artery 5 mm immediately distal to the stent is embedded in plastic. Sections are taken from the proximal, middle, and distal portions of each stent. Serial sections are also taken of the first 2 mm proximal and distal to the stent. Sections are stained with hematoxylin-eosin and Movat pentachrome stains. […] The neointima and neointimal thickness is measured both at and between the stent struts. The vessel area is measured as the area within the EEL. Cells staining positively as macrophages are counted in the sections taken from the stented area of artery. Data are expressed as mean ±SEM. Statistical analysis of the histologic data is accomplished using ANOVA due to the fact that two stented arteries are measured per animal with a mean generated per animal. […]

[2] = Drug release from polymer coatings in plasma; assay type: physicochemical; conditions: citrated human plasma, 37°, changed daily; stable = less than 10% variation of the drug release rate
Description: (§1) A stent (e.g. a Multi-Link Vision stent, Guidant Corp.; or a DRIVER stent, Medtronic Corp.) is weighed and then mounted on a rotating or other support for coating with a polymeric or other synthetic or biological carrier used as a drug reservoir. In an exemplary carrier application procedure, while the stent is rotating, a 100 μl aliquot of a solution of polylactide glycolide, 0.75 mg/ml of pimecrolimus and 0.0015 mg/ml 2,6-di-tert-butyl-4-methylphenol dissolved in a 50:50 mixture of methanol and tetrahydrofuran, is coated onto it. The coated stent is removed from the support and allowed to air-dry. After a final weighing the amount of coating on the stent is determined.
Drug Release from Polymer Coatings in Plasma
Release of pimecrolimus in plasma is also studied. 1 cm pieces of a coated stent are put into 1 ml of citrated human plasma (from Helena Labs) in lyophilized form and reconstituted by adding 1 ml of sterile deionized water. Three sets of stent plasma solutions are incubated at 37° and the plasma is changed daily. Different assays are performed on the solution to determine the released pimecrolimus concentrations.

[3] = Drug release from polymer coatings in aqueous solution; assay type: physicochemical; conditions: PBS pH 7.4 or PEG/water 40/60 v/v, 37°, solutions changed daily; stable = less than 10% variation of the drug release rate
Description: as §1
Drug Release from Polymer Coatings in Aqueous Solution
Four 2 cm pieces of stents coated as described in Example 3 above are placed into 100 ml of PBS having a pH of 7.4. Another 4 pieces from each series are placed into 100 ml of PEG/water solution (40/60 v/v, MW of PEG=400). The stent pieces are incubated at 37° in a shaker. The buffer and PEG solutions are changed daily and different assays are performed on the solution to determine the released pimecrolimus concentrations. […] The term “stable pimecrolimus” means that less than 10% variation of the drug release rate is observed.

[4] = tested on: rat carotid artery balloon injury; test: Rat carotid artery balloon injury model; assay type: in vivo
[5] = tested on: allogeneic kidney transplantation; conditions: oral administration; cited from earlier work

Row | pimecrolimus release from coated stents in plasma [2] | pimecrolimus release from coated stents [3] | SMILES | extent of restenotic lesion formation ([1]; 28 days after stenting) | lesion formation in the portions of artery immediately proximal and immediately distal to the stent ([1]; 28 days) | number of inflammatory cells, especially in the area surrounding the stent struts ([1]; 28 days) | constrictive remodeling ([4]; local administration to the adventitia) | infiltration of CD45+ leukocytes ([4]; local administration to the adventitia via catheter/Alzet minipump, day 1) | early and late neointimal lesions ([4]; local administration to the adventitia, early 9 days and late 21-28 days post-ballooning) | CD45-positive leukocyte infiltration into the vessel wall and adventitia ([4]; oral dosing, 1 day post-balloon injury) | neointimal lesion formation following balloon injury ([4]; oral dosing, at 9 and 12 days) | minimum effective dose (MED) [5] [mg/kg]
1 | stable pimecrolimus release | stable pimecrolimus release | CC[C@@H]1/C=C(\C)C[C@H](C)C[C@H](OC)[C@H]2O[C@@](O)(C(=O)C(=O)N3CCCC[C@H]3C(=O)O[C@H](/C(C)=C/[C@@H]3CC[C@H](Cl)[C@H](OC)C3)[C@H](C)[C@@H](O)CC1=O)[C@H](C)C[C@@H]2OC [pimecrolimus, {[1E-(1R,3R,4S)]1R,9S,12S,13R,14S,17R,18E,21S,23S,24R,25S,27R}-12-[2-(4-chloro-3-methoxycyclohexyl)-1-methylvinyl]-17-ethyl-1,14-dihydroxy-23,25-dimethoxy-13,19,21,27-tetramethyl-11,28,dioxa-4-azatricyclo [22.3.1.0(4,9)]octacos-18-ene-2,3,10,16-tetraone] | marked reduction | inhibited | significantly reduced | potent inhibition | potent inhibition | potent inhibition | significantly reduce | significantly reduce | –
2 | – | – | C=CC[C@@H]1/C=C(\C)C[C@H](C)C[C@H](OC)[C@H]2O[C@@](O)(C(=O)C(=O)N3CCCC[C@H]3C(=O)O[C@H](/C(C)=C/[C@@H]3CC[C@@H](O)[C@H](OC)C3)[C@H](C)[C@@H](O)CC1=O)[C@H](C)C[C@@H]2OC [tacrolimus] | – | – | – | – | – | – | – | – | 14
